# Assay results published in patent US20230289968A1, “AUTOMATED ANALYSIS OF CELL CULTURES” (Hoffmann-La Roche Inc., priority 2020, published 2023).
# Experiments:
# MDA-MB-231 cells = assay: Breast-cancer-on-chip culture, time-lapse imaging analysed with STAMP (apoptosis rate, Pdeath); type: cell-based; settings: 1 µM doxorubicin
# Description: Cell cultures The MDA-MB-231 cell line, from triple negative breast cancer, was cultured in high-glucose DMEM (GE Healthcare, #SH30081.01) supplemented with 10% fetal bovine serum (Biosera), 1% Penicillin/Streptomycin (Gibco), 1% glutamine (Gibco). The IGR-Pub lung adenocarcinoma cells and the autologous T cells P62 were harvested from the same patient in Institut Gustave Roussy. The IGR-Pub cells were cultured in DMEM F12 (GIBCO) supplemented with 10% fetal bovine serum (Biosera), 1% of Ultroser G (Pall), 1% of Sodium Pyruvate (Gibco) and 1% Penicillin/Streptomycin (GIBCO). P62 T cells were cultured in RPMI-1640 (GE Healthcare) supplemented with 10% human AB serum (Institut Jacques Boy, Reims, France), rIL-2 (20 U/ml, Gibco), 1% of Sodium Pyruvate (Gibco) and 0.1% Penicillin/Streptomycin (Gibco). Primary cancer-associated fibroblasts (CAFs) were isolated and cultured as previously reported. All cell lines were periodically tested to exclude mycoplasma contamination using a qPCR-based method (VenorGem Classic, BioValley, #11-1250). The MDA-MB-231 cell line was authenticated by SRT profiling (GenePrint 10 system, Promega, #B9510). Doxorubicin was purchased from Teva pharmaceuticals (200 mg/ml).
# Tumor-on-chip preparation The microfluidic devices were purchased from AIM-Biotech (#DAX-1). Cells were seeded in the central chamber of the DAX-1 chips embedded in a matrix composed of type I rat tail collagen (Thermofisher, #A1048301) at the final concentration of 2.3 mg/ml. Cancer cells were seeded in the gel at a final density of 2×10^6 cells/ml. Autologous T cells were added at final densities of 0.2×10^6 to 2×10^6 cells/ml in order to obtain different ratios (from 10:1 to 1:1) between cancer and T cells. Primary CAFs were added at cancer:CAF 6:1 ratio. The microfluidic devices were incubated for 30 min at 37° C. in a humidified chamber to allow the polymerization of the collagen solution; afterwards, 120 µl of culture medium were added in each lateral chamber. MDA-MB-231 cells in chip were cultured in the same medium used for dish 2D culture, whereas the IGR-Pub/P62 cells co-cultures were cultured in T-cell medium, supplemented with rIL-2 (10 U/ml, GIBCO, #PHC0027). After the addition of the medium, the microfluidic devices were kept for 1 hour in the incubator before transfer to the incubating chamber of the microscope for imaging.
# Cell staining Cancer cells were labeled with CellTrace™ Yellow (Thermofisher, #C34567) before seeding in the gel, for the detection in the so-called “red channel” of fluorescence. […] CellTrace™ exists in 4 colours so up to 5 different cell populations could potentially be analysed separately (4 colours + unstained) by staining the cells prior to mixing. […]
# [1] = system: MDA-MB-231 cells co-cultured with CAFs; assay: Breast-cancer-on-chip co-culture with cancer-associated fibroblasts, STAMP apoptosis rate; type: cell-based; settings: 1 µM doxorubicin, 6:1 cancer:CAF ratio, TLAG = 4 h, 68 hrs
# Description: MDA-MB-231 cancer cells were co-cultured on-chip +/- cancer-associated fibroblasts (CAFs) and +/- doxorubicin (1 µM) treatment. Final CAF:cancer ratio was 1:6. […] The data are the means of 3 measurements coming from 3 videos of the same experiment (+/- SEM). The data illustrating the MDA-MB-231 without CAFs conditions come from the same videos analyzed for FIG. 4 but with different time-interval resolution.
# Cell cultures The MDA-MB-231 cell line, from triple negative breast cancer, was cultured in high-glucose DMEM (GE Healthcare, #SH30081.01) supplemented with 10% fetal bovine serum (Biosera), 1% Penicillin/Streptomycin (Gibco), 1% glutamine (Gibco). The IGR-Pub lung adenocarcinoma cells and the autologous T cells P62 were harvested from the same patient in Institut Gustave Roussy. […]
# Having established that the STAMP method accurately monitors cancer death within co-cultures of cancer and T cells, we moved to bi-cultures of cancer cells and cancer-associated fibroblasts (CAFs). […] Since it is well established that CAFs contribute to chemoresistance in various cancer types, by co-culturing primary breast CAFs with the breast cancer MDA-MB-231 cells, we assessed the capacity of ToC to recapitulate the CAF impact on doxorubicin resistance ex vivo.
smiles,measurement,setting,value
COc1cccc2c1C(=O)c1c(O)c3c(c(O)c1C2=O)C[C@@](O)(C(=O)CO)C[C@@H]3O[C@H]1C[C@H](N)[C@H](O)[C@H](C)O1 [doxorubicin],latency in the response to doxorubicin,"MDA-MB-231 cells; 3D on-chip (FIG. 4C, right)",20 h
same,death rate during the first 20 hrs of treatment,"MDA-MB-231 cells; TLAG = 10 hrs, 3D on-chip",remained at basal level
same,death rate (apoptosis rate) in 10 hrs-time-intervals,"MDA-MB-231 cells; after 20 hrs of exposure, TLAG = 10 hrs, 3D on-chip, 72 h",more than 10%
same,Potential of death induction (Pdeath) increase,"MDA-MB-231 cells; during the first 2 days, remains high during the 3rd day, T̃ = 16 hr",3-4 fold
same,doxorubicin-dependent apoptotic increase in presence of CAFs,[1],completely impaired
